Reference: ChEMBL document CHEMBL5727378, “Benzenesulfonamide derivatives as inverse agonists of retinoid-related orphan receptor gamma (RORγ(T))” (2019)

The compounds below were run against T1, Nuclear receptor ROR-gamma (Homo sapiens, UniProt P51449) (assay: GAL4-RORgamma Transactivation: The RORγ transactivation model was developed from the line HG5LN, which is a HeLa line that stably expresses a luciferase reporter gene controlled by a pentamer of the GAL4 recognition domain of yeast and of a β-globin promoter. The HG5LN line was stably transfected by the DNA-binding domain (DBD) of GAL4 fused to the ROR gamma ligand-binding domain (LBD). Molecules that inhibit the ROR gamma constitutive activity reduce the luciferase expression, thus leading to a reduction in the emitted luminescence.The cells are seeded in 384-well plates (5000 cells in 45 μL/well of culture medium containing 10% fetal calf serum) and incubated for 4 hours at 37° C., 5% CO2. 5 μL of the test molecules (compounds described in the tables described above) are then added to each well and the plates are incubated for 18 hours at a temperature of 37° C. under 5% of CO2. 20 μL of luciferase substrate (Promega) are added to each well and the luminescence emitted is read by a microplate reader.The luminescence units (“RLU”) are normalized by positive controls (“POS” containing a saturated concentration of benzenesulfonamide, N-(2,2,2-trifluoroethyl)-N-[4-[2,2,2-trifluoro-1-hydroxy-1-(trifluoromethyl)ethyl]phenyl]) and negative controls (“NEG” containing DMSO): % inhibition=((RLU−NEG)*100)/(POS−NEG). The IC50 values are calculated from a 4-parameter logistic model using the XLFit software (IDBS).).
T1 sequence (P51449 whole entry): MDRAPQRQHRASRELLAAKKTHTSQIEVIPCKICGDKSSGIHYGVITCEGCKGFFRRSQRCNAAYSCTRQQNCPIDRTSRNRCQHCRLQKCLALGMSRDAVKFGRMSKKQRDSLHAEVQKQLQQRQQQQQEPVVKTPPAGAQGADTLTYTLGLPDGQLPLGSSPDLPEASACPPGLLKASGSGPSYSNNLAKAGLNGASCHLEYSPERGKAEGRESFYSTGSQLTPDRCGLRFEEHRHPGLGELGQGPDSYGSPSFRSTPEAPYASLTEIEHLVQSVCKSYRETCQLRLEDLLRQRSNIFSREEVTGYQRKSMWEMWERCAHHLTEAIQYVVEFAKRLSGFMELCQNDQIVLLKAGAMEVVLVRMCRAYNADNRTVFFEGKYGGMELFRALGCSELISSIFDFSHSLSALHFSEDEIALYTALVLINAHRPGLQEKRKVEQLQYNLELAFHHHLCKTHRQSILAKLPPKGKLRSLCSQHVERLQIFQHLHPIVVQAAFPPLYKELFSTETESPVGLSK

Row | IC50 | Compound
1 | > 1 µM | CCc1ccc(N(CC(C)C)S(=O)(=O)c2ccc3c(c2)N(CC2CCOCC2)CCS3(=N)=O)cc1 (stereo not drawn)
2 | > 1 µM | CCc1ccc(N(CC(C)C)S(=O)(=O)c2ccc(NC3CCNC(=O)C3)c(S(C)(=N)=O)c2)cc1 (stereo not drawn)
3 | < 0.1 µM | CCc1ccc(N(CC(C)C)S(=O)(=O)c2ccc(OCC3CCSCC3)c(S(C)(=N)=O)c2)cc1 (stereo not drawn)
